The nature of one data set: Hygroscopicity. It counts as physicochemical.
For data set [1] the following is noted: as described in European Patent 0223403B; cited from earlier work.
For data set [2] the following is noted: as described in European Patent 0223403B; cited from earlier work. The source holds these as a separate data set.

Where a name gives a salt, the structure may show the parent alone. Read-outs that look alike come from different tables or passages of the source.

`Fc1ccc([C@@H]2CCNC[C@H]2COc2ccc3c(c2)OCO3)cc1` [Example 3, paroxetine isethionate]: the “Hygroscopicity (in words)” value in the data set “Hygroscopicity” is listed as “practically no adverse hygroscopicity characteristics”.
Take `Fc1ccc([C@@H]2CCNC[C@H]2COc2ccc3c(c2)OCO3)cc1` [Example 9, paroxetine hydrochloride hemi hydrate]: in data set [1], the “Stability (in words)” value is listed as “stable”. The “Hygroscopicity (in words)” value in data set [2] is recorded as “non-hygroscopic”.

The record behind these values is US20040225128A1 (priority 2001, published 2004).
